Common to all, as to format: binding
One experiment concerns the target T1, PTPN11(SH2dom.N-term.) (Homo sapiens, UniProt Q06124).
T1 construct: SH2dom.N-term. denotes SH2 domain closest to N-terminus of protein; made in house; host or cells: HEK293 (transient transfection, unpurified extract)
T1 sequence (Q06124 6-102 limits assumed): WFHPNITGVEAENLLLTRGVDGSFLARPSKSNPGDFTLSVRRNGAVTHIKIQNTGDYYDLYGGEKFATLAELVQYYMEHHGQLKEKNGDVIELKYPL
The conditions noted are these: primary screen, 10 μM.

Experiment [1] has as its target T2, STAT3(D661Y)-nonphosphorylated (Homo sapiens, UniProt P40763, D661Y).
T2 construct: made in house; host or cells: HEK293 (transient transfection), unpurified extract, dephosphorylated by endogenous phosphatases
The experiment is described as follows: biochemical. To be noted: for percent of DMSO vehicle control at 10 µM / remaining activity at 10 µM: read-out: percent of DMSO vehicle control.

Experiment [2] has as its target T3, STAT3(N567K)-nonphosphorylated (Homo sapiens, UniProt P40763, N567K).
T3 construct: made in house; host or cells: HEK293 (transient transfection), unpurified extract, dephosphorylated by endogenous phosphatases
The experiment is described as follows: biochemical. To be noted: for percent of DMSO vehicle control at 10 µM / remaining activity at 10 µM: read-out: percent of DMSO vehicle control.

For the next experiment, the target named is T4, STAT5A (Homo sapiens, UniProt P42229).
T4 construct: made in house; host or cells: HEK293 (transient transfection), unpurified extract
T4 sequence (P42229 1-794): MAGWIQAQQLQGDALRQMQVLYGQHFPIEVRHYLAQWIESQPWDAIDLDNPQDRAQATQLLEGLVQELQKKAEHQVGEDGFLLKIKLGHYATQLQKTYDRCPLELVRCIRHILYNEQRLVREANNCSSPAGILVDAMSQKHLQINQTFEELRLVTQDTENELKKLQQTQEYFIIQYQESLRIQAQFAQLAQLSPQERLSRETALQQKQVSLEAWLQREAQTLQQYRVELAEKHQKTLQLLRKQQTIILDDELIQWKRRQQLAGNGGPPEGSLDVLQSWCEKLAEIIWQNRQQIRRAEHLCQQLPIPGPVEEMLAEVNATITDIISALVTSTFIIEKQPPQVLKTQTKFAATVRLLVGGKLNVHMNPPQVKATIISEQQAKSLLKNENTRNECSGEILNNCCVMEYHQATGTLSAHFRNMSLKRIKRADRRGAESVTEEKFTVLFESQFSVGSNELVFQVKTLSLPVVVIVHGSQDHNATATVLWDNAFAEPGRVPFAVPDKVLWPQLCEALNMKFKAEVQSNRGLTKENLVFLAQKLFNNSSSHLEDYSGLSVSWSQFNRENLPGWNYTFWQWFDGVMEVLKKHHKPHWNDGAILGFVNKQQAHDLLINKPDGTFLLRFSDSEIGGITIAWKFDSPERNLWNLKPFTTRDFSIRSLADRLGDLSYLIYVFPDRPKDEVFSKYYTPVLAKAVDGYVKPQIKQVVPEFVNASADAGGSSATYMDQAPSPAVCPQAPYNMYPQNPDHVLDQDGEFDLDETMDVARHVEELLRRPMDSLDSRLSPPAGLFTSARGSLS
The experiment is described as follows: biochemical. To be noted: for percent of DMSO vehicle control at 10 µM / remaining activity at 10 µM: read-out: percent of DMSO vehicle control.

Another experiment has as its target T5, STAT5B (Homo sapiens, UniProt P51692).
T5 construct: made in house; host or cells: HEK293 (transient transfection), unpurified extract
T5 sequence (P51692 1-787): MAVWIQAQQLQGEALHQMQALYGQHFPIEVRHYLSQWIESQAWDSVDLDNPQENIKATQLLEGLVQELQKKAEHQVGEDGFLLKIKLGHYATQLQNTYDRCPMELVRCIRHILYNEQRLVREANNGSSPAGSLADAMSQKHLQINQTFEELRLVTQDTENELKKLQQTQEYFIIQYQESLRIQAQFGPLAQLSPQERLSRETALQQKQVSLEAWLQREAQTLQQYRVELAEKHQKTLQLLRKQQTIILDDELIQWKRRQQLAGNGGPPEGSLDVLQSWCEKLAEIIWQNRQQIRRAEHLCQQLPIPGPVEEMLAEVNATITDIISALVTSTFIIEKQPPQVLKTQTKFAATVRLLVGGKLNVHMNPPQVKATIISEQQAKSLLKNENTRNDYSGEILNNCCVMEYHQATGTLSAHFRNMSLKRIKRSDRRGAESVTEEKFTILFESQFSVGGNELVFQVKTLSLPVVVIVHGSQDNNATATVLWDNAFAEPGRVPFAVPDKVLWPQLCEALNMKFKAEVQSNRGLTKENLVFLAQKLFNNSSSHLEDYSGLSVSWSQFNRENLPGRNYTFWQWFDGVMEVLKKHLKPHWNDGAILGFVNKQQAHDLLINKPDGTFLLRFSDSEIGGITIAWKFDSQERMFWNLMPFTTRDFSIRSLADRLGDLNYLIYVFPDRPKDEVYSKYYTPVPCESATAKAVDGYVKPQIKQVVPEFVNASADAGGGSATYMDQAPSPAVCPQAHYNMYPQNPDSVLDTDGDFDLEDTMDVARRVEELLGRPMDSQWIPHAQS
The experiment is described as follows: biochemical. To be noted: for percent of DMSO vehicle control at 10 µM / remaining activity at 10 µM: read-out: percent of DMSO vehicle control.

In a further experiment the target is T6, STAT5B(N642H) (Homo sapiens, UniProt P51692, N642H).
T6 construct: made in house; host or cells: HEK293 (transient transfection), unpurified extract
T6 sequence (P51692 1-787 N642H): T5 sequence (P51692 1-787) with N642H
The experiment is described as follows: biochemical. To be noted: for percent of DMSO vehicle control at 10 µM / remaining activity at 10 µM: read-out: percent of DMSO vehicle control.

Each structure is given as a SMILES string. Numbering of substitutions follows the chain as printed. Like-named read-outs stand apart in the source and are kept apart here. Non-standard residues stand in square brackets, D forms with d. Residues, ends and D or L forms follow the SMILES beside them. *: point of attachment. pY = N[C@@H](Cc1ccc(OP(=O)(O)O)cc1)C(=O)O; Caffeoyl = O=C(/C=C/c1ccc(O)c(O)c1)*

Regarding `CC[C@H](C)[C@H](NC(=O)[C@H](CCC(=O)O)NC(=O)[C@H](CCC(=O)O)NC(=O)[C@H](Cc1ccc(OP(=O)(O)O)cc1)NC(C)=O)C(=O)N[C@@H](CCC(=O)O)C(N)=O` [Ac-pYEEIE-NH2] (Ac-[pY]EEIE-NH2), the “percent of DMSO vehicle control” value at PTPN11(SH2dom.N-term.) is 116.6%; in experiment [1] (primary screen, 10 μM) it was 91.4±3.8%; in experiment [2] (primary screen, 10 μM) it was 94.9±0.8%; on STAT5A (primary screen, 10 μM), 94.4±4.9%; at STAT5B (primary screen, 10 μM), 21.8±4.7%; on STAT5B(N642H) (primary screen, 10 μM) it was 115.5%.
On to `CC(=O)N[C@@H](Cc1ccc(CP(=O)(O)O)cc1)C(=O)NC1(C(=O)N[C@@H](CC(N)=O)C(=O)NCCCc2c(O)ccc3ccccc23)CCCCC1` [CGP78850], for which, at PTPN11(SH2dom.N-term.), the “percent of DMSO vehicle control” value came out at 125.2±9.1%. In addition, the percent of DMSO vehicle control at 10 µM in experiment [1] amounted to 97.4 ± 6.3%; in experiment [2] it was 78.3 ± 2%; on STAT5A, 84.9 ± 21%; at STAT5B, 89.6 ± 6.1%; on STAT5B(N642H), 107 ± 9.8%.
The Kd is the concentration at which binding is half-saturated. Regarding `CC[C@H](C)[C@H](NC(=O)[C@H](CCC(=O)O)NC(=O)[C@H](CCC(=O)O)NC(=O)[C@H](Cc1ccc(OP(=O)(O)O)cc1)NC(=O)/C=C/c1ccc(O)c(O)c1)C(=O)N[C@@H](CCC(=O)O)C(=O)O` [Caffeic acid-pYEEIE] (Caffeoyl-[pY]EEIE-OH), on PTPN11(SH2dom.N-term.), the “percent of DMSO vehicle control” value came to 92.8±10.0%. The percent of DMSO vehicle control at 10 µM in experiment [1] was 108 ± 9.3%; in experiment [2], 91 ± 2.3%; on STAT5A, 6.2 ± 0.4%; at STAT5B, 19.3 ± 2.8%; at STAT5B(N642H), 9.4 ± 1%. Also, the Kd on STAT5A was 4020 ± 1500 nM; on STAT5B it was 4200 ± 2800 nM; at STAT5B(N642H), 2400 ± 2300 nM.
Take `O=C(CCl)Nc1cccc(CNC(=O)[C@H](Cc2ccc(OP(=O)(O)O)cc2)NC(=O)Cc2ccc(F)cc2)c1` [MN551]: the “percent of DMSO vehicle control” value on PTPN11(SH2dom.N-term.) is given as 85.0±0.9%. Besides, the remaining activity at 10 µM came to 171% in experiment [1] (primary screen, 10 μM); 86.5 ± 6.2% in experiment [2] (primary screen, 10 μM); 39 ± 0.8% on STAT5A (primary screen, 10 μM); 49.1 ± 7.6% at STAT5B (primary screen, 10 μM); 76.9% on STAT5B(N642H) (primary screen, 10 μM).
Turning to `NC(=O)CC[C@H](NC(=O)[C@@H]1CC[C@@H]2CCN(C(=O)CCCCCC#Cc3cccc4c3CN(C3CCC(=O)NC3=O)C4=O)C[C@H](NC(=O)c3cc4cc(C(F)(F)P(=O)(O)O)ccc4[nH]3)C(=O)N21)C(=O)NC(c1ccccc1)c1ccccc1` (some centres unmarked) [SD-36], the “percent of DMSO vehicle control” value at PTPN11(SH2dom.N-term.) is 89.9±0.7%. For the same molecule, the Kd is 24 ± 12 nM in experiment [1] (dose-response); 30 ± 11 nM in experiment [2] (dose-response); 1600 ± 670 nM on STAT5A (dose-response); 2030 ± 820 nM at STAT5B (dose-response); 2400 ± 740 nM on STAT5B(N642H) (dose-response). Also, the percent of DMSO vehicle control at 10 µM is 0% in experiment [1]; 0.1% in experiment [2]; 3.4 ± 0.4% at STAT5A; 5.7 ± 0.1% at STAT5B; 3.2 ± 0.8% on STAT5B(N642H).
Take `CC(=O)N1CC[C@H]2CC[C@@H](C(=O)N[C@@H](CCC(N)=O)C(=O)NC(c3ccccc3)c3ccccc3)N2C(=O)[C@@H](NC(=O)c2cc3cc(C(F)(F)P(=O)(O)O)ccc3[nH]2)C1` [SI-109]: the “percent of DMSO vehicle control” value on PTPN11(SH2dom.N-term.) is recorded as 109.2%. The Kd in experiment [1] came to 21 ± 6.8 nM; in experiment [2], 12 ± 1.8 nM; at STAT5A, 7030 ± 2200 nM; on STAT5B it was 18000 ± 4000 nM; at STAT5B(N642H), 19000 ± 8500 nM. Also, the percent of DMSO vehicle control at 10 µM turned out to be 0.6 ± 0.2% in experiment [1]; 0.2% in experiment [2]; 101% at STAT5A; 109% at STAT5B; 123% at STAT5B(N642H).
Take `C/C(=C\C(=O)N[C@H](C(=O)N1CCC[C@H]1C(=O)N(c1ccccc1)c1ccc(I)cc1)C(C)(C)C)c1ccc(OP(=O)(O)O)cc1` [STAT6-IN-1]: the “percent of DMSO vehicle control” value at PTPN11(SH2dom.N-term.) is on record as 76.7±1.3%. Also, the Kd came out at 1000 ± 800 nM in experiment [1] (dose-response, read-out: KD); 190 ± 107 nM in experiment [2] (dose-response, read-out: KD); 9.1 ± 4.3 nM at STAT5A (dose-response, read-out: KD); 16 ± 3.2 nM on STAT5B (dose-response, read-out: KD); 5.6 ± 2.1 nM at STAT5B(N642H) (dose-response, read-out: KD). Also, the remaining activity at 10 µM in experiment [1] (primary screen, 10 μM) was 0%; in experiment [2] (primary screen, 10 μM), 0%; on STAT5A (primary screen, 10 μM) it was 0%; at STAT5B (primary screen, 10 μM), 0%; on STAT5B(N642H) (primary screen, 10 μM) it was 0%.
Take `CC(C)(C)[C@H](NC(=O)/C=C/c1ccc(OP(=O)(O)O)cc1)C(=O)N1CCC[C@H]1C(=O)N(c1ccccc1)c1ccc(I)cc1` [STAT6-IN-3]: the “percent of DMSO vehicle control” value on PTPN11(SH2dom.N-term.) is given as 73.9±34.6%. For the same molecule, the Kd in experiment [1] (dose-response, read-out: KD) was found to be 1900 ± 2300 nM; in experiment [2] (dose-response, read-out: KD), 500 ± 200 nM; on STAT5A (dose-response, read-out: KD), 46 ± 19 nM; on STAT5B (dose-response, read-out: KD), 69 ± 42 nM; on STAT5B(N642H) (dose-response, read-out: KD), 36 ± 27 nM. For the same molecule, the remaining activity at 10 µM was 4.4 ± 3.7% in experiment [1] (primary screen, 10 μM); 0.2 ± 0.3% in experiment [2] (primary screen, 10 μM); 0% at STAT5A (primary screen, 10 μM); 0% at STAT5B (primary screen, 10 μM); 1.3 ± 7.7% at STAT5B(N642H) (primary screen, 10 μM).
Consider `O=C(COc1ccc2cc(C(=O)Nc3ccccc3)ccc2c1)NCc1ccc(OP(=O)(O)O)c(OP(=O)(O)O)c1` [Stafib-1], for which the “percent of DMSO vehicle control” value on PTPN11(SH2dom.N-term.) worked out at 79.2±4.6%. Further, the remaining activity at 10 µM came to 157% in experiment [1] (primary screen, 10 μM); 97.5 ± 16.8% in experiment [2] (primary screen, 10 μM); 22 ± 26.6% on STAT5A (primary screen, 10 μM); 0% on STAT5B (primary screen, 10 μM); 12.5 ± 13.5% at STAT5B(N642H) (primary screen, 10 μM).

For the origin of these results see publication PMC12951562, “SH2scan: Mapping SH2 Domain-Ligand Binding Selectivity for Inhibitors and Degraders” (Journal of Medicinal Chemistry, 2026).
